From ChEMBL document CHEMBL5338828, “Structure-Activity Relationships of Bis-Intercalating Peptides and Their Application as Antibody-Drug Conjugate Payloads” (J Med Chem, 2023) come the findings set out here.

One data set deals with Clupeidae. The data set can be described thus: Binding affinity to Herring sperm DNA assessed as melting temperature by differential scanning calorimetric analysis.
A short description of data set [1]: Retention time of the compound by HPLC analysis. It counts as physicochemical.
A short description of data set [2]: Binding affinity to biotinylated hairpin DNA (unknown origin) assessed as binding constant by SPR analysis.

One may read the Kd as the concentration at which binding is half-saturated.

As for `O=C(N[C@@H]1CNC(=O)[C@@H]2CCCCN2C(=O)COCCNC(=O)[C@@H]2CCCCN2C(=O)[C@H](NC(=O)c2nc3ccccc3cc2O)CNC(=O)[C@@H]2CCCCN2C(=O)COCCNC(=O)[C@@H]2CCCCN2C1=O)c1nc2ccccc2cc1O`, the Tm in the data set on Clupeidae turned out to be 68 °C. In addition, in data set [1], the Retention_time was found to be 16.1 min.
As for `CCN1CC(=O)N(C)[C@@H](C(C)C)C(=O)NC[C@@H](NC(=O)c2nc3ccccc3cc2O)C(=O)N2CCCC[C@H]2C(=O)NCC(=O)N(CC)CC(=O)N(C)[C@@H](C(C)C)C(=O)NC[C@@H](NC(=O)c2nc3ccccc3cc2O)C(=O)N2CCCC[C@H]2C(=O)NCC1=O`, the Kd in data set [2] amounted to 300 nM. In addition, the Retention_time in data set [1] is reported as 18.5 min.
Regarding `CC(C)[C@H]1C(=O)N[C@H](C)[C@@H](NC(=O)c2nc3ccccc3cc2O)C(=O)N2CCCC[C@H]2C(=O)NCC(=O)N(C)CC(=O)N(C)[C@@H](C(C)C)C(=O)N[C@H](C)[C@@H](NC(=O)c2nc3ccccc3cc2O)C(=O)N2CCCC[C@H]2C(=O)NCC(=O)N(C)CC(=O)N1C`, the Tm in the data set with Clupeidae amounted to 87 °C. Further, the Retention_time in data set [1] is 17.6 min.
Consider `CC(C)[C@@H]1NC(=O)CN(C)C(=O)CNC(=O)[C@@H]2CCCCN2C(=O)[C@H](NC(=O)c2nc3ccccc3cc2O)CNC(=O)[C@H](C(C)C)NC(=O)CN(C)C(=O)CNC(=O)[C@@H]2CCCCN2C(=O)[C@H](NC(=O)c2nc3ccccc3cc2O)CNC1=O`, for which the Kd in data set [2] stood at 9000 nM. For the same compound, in data set [1], the Retention_time is listed as 14.6 min.
For `CN1CC(=O)N2CCCCC[C@H]2C(=O)NC[C@@H](NC(=O)c2nc3ccccc3cc2O)C(=O)N2CCCC[C@H]2C(=O)NCC(=O)N(C)CC(=O)N2CCCCC[C@H]2C(=O)NC[C@@H](NC(=O)c2nc3ccccc3cc2O)C(=O)N2CCCC[C@H]2C(=O)NCC1=O` the same measures were 770 nM and 15.8 min.
As for `CC(C)[C@H]1C(=O)NC[C@@H](NC(=O)c2nc3ccccc3cc2O)C(=O)N2CCCC[C@H]2C(=O)NCCOCC(=O)N(C)[C@@H](C(C)C)C(=O)NC[C@@H](NC(=O)c2nc3ccccc3cc2O)C(=O)N2CCCC[C@H]2C(=O)NCCOCC(=O)N1C`, the Tm with Clupeidae was found to be 68 °C. Also, the Retention_time in data set [1] was 16 min.
In data set [1], `CC[C@@H](C)[C@H]1C(=O)NC[C@@H](NC(=O)c2nc3ccc(Br)cc3cc2O)C(=O)N2CCCC[C@H]2C(=O)NCC(=O)N(C)CC(=O)N(C)[C@@H]([C@H](C)CC)C(=O)NC[C@@H](NC(=O)c2nc3ccc(Br)cc3cc2O)C(=O)N2CCCC[C@H]2C(=O)NCC(=O)N(C)CC(=O)N1C` came in with a Retention_time of 21 min.
Regarding `CC(C)[C@H]1C(=O)O[C@H](C)[C@@H](NC(=O)c2nc3ccccc3cc2O)C(=O)N2CCCC[C@H]2C(=O)NCC(=O)N(C)CC(=O)N(C)[C@@H](C(C)C)C(=O)O[C@H](C)[C@@H](NC(=O)c2nc3ccccc3cc2O)C(=O)N2CCCC[C@H]2C(=O)NCC(=O)N(C)CC(=O)N1C`, the Tm in the data set with Clupeidae was found to be 85 °C. The compound further yielded a Retention_time in data set [1] of 21.6 min.
Turning to `CC(C)[C@H]1C(=O)NC[C@@H](NC(=O)c2nc3ccccc3cc2O)C(=O)N2CCCC[C@H]2C(=O)NCC(=O)N(C)CC(=O)N(C)[C@@H](c2ccccc2)C(=O)NC[C@@H](NC(=O)c2nc3ccccc3cc2O)C(=O)N2CCCC[C@H]2C(=O)NCC(=O)N(C)CC(=O)N1C`, in data set [2], the Kd turned out to be 1000 nM. In addition, the Retention_time in data set [1] came out at 17.2 min.
Take `CC[C@H](C)[C@H]1C(=O)N[C@H](C)[C@@H](NC(=O)c2nc3ccccc3cc2O)C(=O)N2CCCC[C@H]2C(=O)NCC(=O)N(C)CC(=O)N(C)[C@@H]([C@@H](C)CC)C(=O)N[C@H](C)[C@@H](NC(=O)c2nc3ccccc3cc2O)C(=O)N2CCCC[C@H]2C(=O)NCC(=O)N(C)CC(=O)N1C`: in the data set with Clupeidae, the Tm came out at 85 °C. In data set [1], this compound displayed a Retention_time of 20.9 min.
For the compound `CCN1C(=O)CN(C)C(=O)CNC(=O)[C@@H]2CCCCN2C(=O)[C@H](NC(=O)c2nc3ccccc3cc2O)CNC(=O)[C@H](C(C)C)N(CC)C(=O)CN(C)C(=O)CNC(=O)[C@@H]2CCCCN2C(=O)[C@H](NC(=O)c2nc3ccccc3cc2O)CNC(=O)[C@@H]1C(C)C`, the Kd in data set [2] amounted to 500 nM. For the same compound, in data set [1], the Retention_time turned out to be 17.9 min.
For `CC[C@H](C)[C@H]1COC[C@@H](NC(=O)c2nc3ccccc3cc2O)C(=O)N2CCCC[C@H]2C(=O)NCC(=O)N(C)CC(=O)N(C)[C@@H](C(C)C)C(=O)NC[C@@H](NC(=O)c2nc3ccccc3cc2O)C(=O)N2CCCC[C@H]2C(=O)NCC(=O)N(C)CC(=O)N1C`, in data set [2], the Kd amounted to 50 nM. In data set [1], the Retention_time was 19.4 min.
On to `C[C@H]1NC(=O)[C@@H]2CCCCN2C(=O)CN(C)C(=O)CNC(=O)[C@@H]2CCCCN2C(=O)[C@H](NC(=O)c2nc3ccccc3cc2O)[C@@H](C)NC(=O)[C@@H]2CCCCN2C(=O)CN(C)C(=O)CNC(=O)[C@@H]2CCCCN2C(=O)[C@@H]1NC(=O)c1nc2ccccc2cc1O`, for which, in data set [2], the Kd is 9 nM. The Retention_time in data set [1] came to 16.7 min.
For `CC(C)[C@H]1C(=O)NC[C@@H](NC(=O)c2nc3ccccc3cc2O)C(=O)N2CCCC[C@H]2C(=O)NCC(=O)N(C)CC(=O)N(C)C2(CC2)C(=O)NC[C@@H](NC(=O)c2nc3ccccc3cc2O)C(=O)N2CCCC[C@H]2C(=O)NCC(=O)N(C)CC(=O)N1C` the same measures were 700 nM and 15.4 min.
`CC(C)[C@H]1C(=O)NC[C@@H](NC(=O)c2nc3ccccc3cc2O)C(=O)N2CCCC[C@H]2C(=O)NCC(=O)N(C)CC(=O)N(C)[C@@H]([C@@H](C)O)C(=O)NC[C@@H](NC(=O)c2nc3ccccc3cc2O)C(=O)N2CCCC[C@H]2C(=O)NCC(=O)N(C)CC(=O)N1C`: the Tm with Clupeidae was found to be 86 °C. Moreover, the Retention_time in data set [1] amounted to 10.6 min.
On the same counts, the results for `CC(C)[C@H]1C(=O)NC[C@@H](NC(=O)c2nc3ccccc3cc2O)C(=O)N2CCCC[C@H]2C(=O)NCC(=O)N(C)CC(=O)N(C)[C@@H]([C@H](C)OC(C)(C)C)C(=O)NC[C@@H](NC(=O)c2nc3ccccc3cc2O)C(=O)N2CCCC[C@H]2C(=O)NCC(=O)N(C)CC(=O)N1C` are 88 °C and 18.4 min.
For `CC(C)[C@H]1COC[C@@H](NC(=O)c2nc3ccccc3cc2O)C(=O)N2CCCC[C@H]2C(=O)NCC(=O)N(C)CC(=O)N(C)[C@@H](C(C)C)COC[C@@H](NC(=O)c2nc3ccccc3cc2O)C(=O)N2CCCC[C@H]2C(=O)NCC(=O)N(C)CC(=O)N1C`, the Tm with Clupeidae turned out to be 91 °C. The Retention_time in data set [1] was determined as 18.2 min.
In the case of `CC(C)[C@H]1C(=O)NC[C@@H](NC(=O)c2nc3ccccc3cc2O)C(=O)N2CCCC[C@H]2C(=O)NCC(=O)N(C)CC(=O)N(C)C2(CCC2)C(=O)NC[C@@H](NC(=O)c2nc3ccccc3cc2O)C(=O)N2CCCC[C@H]2C(=O)NCC(=O)N(C)CC(=O)N1C`, the Kd in data set [2] came to 300 nM. The compound also returned a Retention_time in data set [1] of 17 min.
For `CC(C)[C@H]1C(=O)NC[C@@H](NC(=O)c2nc3ccccc3cc2O)C(=O)N2CCCC[C@H]2C(=O)NCC(=O)N(C)CC(=O)N(C)C(C)(C)C(=O)NC[C@@H](NC(=O)c2nc3ccccc3cc2O)C(=O)N2CCCC[C@H]2C(=O)NCC(=O)N(C)CC(=O)N1C` the same measures were 700 nM and 15.8 min.
Consider `CC(C)[C@H]1C(=O)N(C)C[C@@H](NC(=O)c2nc3ccccc3cc2O)C(=O)N2CCCC[C@H]2C(=O)NCC(=O)N(C)CC(=O)N(C)[C@@H](C(C)C)C(=O)N(C)C[C@@H](NC(=O)c2nc3ccccc3cc2O)C(=O)N2CCCC[C@H]2C(=O)NCC(=O)N(C)CC(=O)N1C`, for which the Tm with Clupeidae amounted to 88 °C. The compound further registered a Retention_time in data set [1] of 17.7 min.
